EP0640095B1, “PROCESS FOR MAKING VANCOMYCIN” (ABBOTT LABORATORIES, priority 1992, dated 1993)
Values after ≈ are worked out from the molar mass of the structure shown.

Assay: Solubility of vancomycin as a function of pH (base crystallization)
Format: physicochemical
Details: pH 9; pH of 9.0 to 9.5
Text: Prior to the base crystallization step, the pH of the solution must be optimized to maximize the efficiency of the crystallization. […]

SMILES: CN[C@H](CC(C)C)C(=O)N[C@H]1C(=O)N[C@@H](CC(N)=O)C(=O)N[C@H]2C(=O)N[C@H]3C(=O)N[C@H](C(=O)N[C@H](C(=O)O)c4cc(O)cc(O)c4-c4cc3ccc4O)[C@H](O)c3ccc(c(Cl)c3)Oc3cc2cc(c3O[C@@H]2O[C@H](CO)[C@@H](O)[C@H](O)[C@H]2O[C@H]2C[C@](C)(N)[C@H](O)[C@H](C)O2)Oc2ccc(cc2Cl)[C@H]1O [vancomycin]
- solubility: 5 to 20 mg/mL (≈ 3.45 to 13.8 mM)
